According to article PMC3151534 (Bioorganic & medicinal chemistry, 2010):
Several values for one entry are separate records, joined by “and”; a condition that tells them apart may be missing. Identical values can stand only once.

Tests used:
[1] = molecular target: STAT3-SH2 domain (Mus musculus, UniProt P42227); experiment: STAT3 fluorescence polarization; type: binding, murine; conditions: non-phosphorylated analogs; data not shown
[2] = system: STAT3–STAT3:DNA binding activity in NIH3T3/vSrc; type: cell-based, mouse; conditions: 100 μM; for suppression of STAT3-DNA binding activity (in words): 6 and 24 hrs
[3] = Permeability and efflux analysis in Caco-2 cells; conditions: human
[4] = system: tumor cells; conditions: cited from earlier work
[5] = in vitro; conditions: human; for recovery at 90 min, 10 μM: Caco-2
[6] = system: STAT5; experiment: STAT5 fluorescence polarization; type: binding; conditions: data not shown
[7] = molecular target: gp130 (Homo sapiens) (UniProt P40189); experiment: SPR; conditions: cited from earlier work
[8] = system: DU145, Panc-1, NIH3T3/vSrc and MDA468 cells; type: cell-based; conditions: 24 hrs, lower concentrations; data not shown

Chain of STAT3-SH2 domain (P42227 whole entry, the tested form may be a part): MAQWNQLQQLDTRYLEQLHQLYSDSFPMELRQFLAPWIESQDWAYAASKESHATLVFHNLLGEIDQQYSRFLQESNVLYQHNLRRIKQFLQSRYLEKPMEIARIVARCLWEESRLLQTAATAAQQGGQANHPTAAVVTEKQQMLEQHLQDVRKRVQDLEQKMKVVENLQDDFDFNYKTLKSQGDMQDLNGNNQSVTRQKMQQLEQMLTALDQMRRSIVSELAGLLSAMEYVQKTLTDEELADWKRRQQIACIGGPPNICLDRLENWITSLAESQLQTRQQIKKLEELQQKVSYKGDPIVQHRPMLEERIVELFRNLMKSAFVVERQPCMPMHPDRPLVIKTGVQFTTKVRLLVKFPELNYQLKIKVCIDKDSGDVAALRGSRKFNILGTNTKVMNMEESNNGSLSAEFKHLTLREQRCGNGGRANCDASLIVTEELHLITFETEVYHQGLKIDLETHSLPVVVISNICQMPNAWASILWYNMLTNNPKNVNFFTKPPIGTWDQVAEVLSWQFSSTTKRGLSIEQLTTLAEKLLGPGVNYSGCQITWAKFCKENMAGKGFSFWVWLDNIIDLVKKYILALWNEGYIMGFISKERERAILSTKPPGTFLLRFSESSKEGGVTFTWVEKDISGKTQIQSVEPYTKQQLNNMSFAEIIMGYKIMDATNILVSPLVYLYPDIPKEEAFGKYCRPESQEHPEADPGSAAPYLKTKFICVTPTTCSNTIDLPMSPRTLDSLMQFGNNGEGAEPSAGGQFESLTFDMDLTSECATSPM
Chain of gp130 (Homo sapiens) (P40189 whole entry, looked up): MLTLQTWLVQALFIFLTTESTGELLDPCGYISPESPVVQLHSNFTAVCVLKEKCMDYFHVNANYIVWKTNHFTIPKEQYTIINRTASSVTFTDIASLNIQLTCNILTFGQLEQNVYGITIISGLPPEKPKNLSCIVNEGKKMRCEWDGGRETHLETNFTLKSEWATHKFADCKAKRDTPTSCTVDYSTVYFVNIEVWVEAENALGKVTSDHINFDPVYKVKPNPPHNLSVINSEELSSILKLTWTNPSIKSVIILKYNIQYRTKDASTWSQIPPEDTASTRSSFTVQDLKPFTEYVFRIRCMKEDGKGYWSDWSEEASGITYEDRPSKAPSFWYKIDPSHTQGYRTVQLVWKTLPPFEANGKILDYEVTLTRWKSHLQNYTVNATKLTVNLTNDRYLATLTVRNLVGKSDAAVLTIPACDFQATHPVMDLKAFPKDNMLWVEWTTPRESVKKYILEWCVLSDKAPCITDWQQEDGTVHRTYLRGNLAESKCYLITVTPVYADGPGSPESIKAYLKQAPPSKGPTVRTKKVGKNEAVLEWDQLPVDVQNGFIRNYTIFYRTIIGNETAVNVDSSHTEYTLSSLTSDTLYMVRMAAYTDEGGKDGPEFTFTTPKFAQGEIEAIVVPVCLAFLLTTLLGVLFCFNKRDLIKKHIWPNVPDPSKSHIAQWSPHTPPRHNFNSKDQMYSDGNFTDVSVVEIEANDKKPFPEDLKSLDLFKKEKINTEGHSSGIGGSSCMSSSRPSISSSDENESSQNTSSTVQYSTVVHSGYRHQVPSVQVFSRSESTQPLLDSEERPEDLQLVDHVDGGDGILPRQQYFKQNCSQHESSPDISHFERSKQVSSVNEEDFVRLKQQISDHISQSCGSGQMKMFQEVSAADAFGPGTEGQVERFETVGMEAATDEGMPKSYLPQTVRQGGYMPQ
Chain of STAT3 (P40763 2-770): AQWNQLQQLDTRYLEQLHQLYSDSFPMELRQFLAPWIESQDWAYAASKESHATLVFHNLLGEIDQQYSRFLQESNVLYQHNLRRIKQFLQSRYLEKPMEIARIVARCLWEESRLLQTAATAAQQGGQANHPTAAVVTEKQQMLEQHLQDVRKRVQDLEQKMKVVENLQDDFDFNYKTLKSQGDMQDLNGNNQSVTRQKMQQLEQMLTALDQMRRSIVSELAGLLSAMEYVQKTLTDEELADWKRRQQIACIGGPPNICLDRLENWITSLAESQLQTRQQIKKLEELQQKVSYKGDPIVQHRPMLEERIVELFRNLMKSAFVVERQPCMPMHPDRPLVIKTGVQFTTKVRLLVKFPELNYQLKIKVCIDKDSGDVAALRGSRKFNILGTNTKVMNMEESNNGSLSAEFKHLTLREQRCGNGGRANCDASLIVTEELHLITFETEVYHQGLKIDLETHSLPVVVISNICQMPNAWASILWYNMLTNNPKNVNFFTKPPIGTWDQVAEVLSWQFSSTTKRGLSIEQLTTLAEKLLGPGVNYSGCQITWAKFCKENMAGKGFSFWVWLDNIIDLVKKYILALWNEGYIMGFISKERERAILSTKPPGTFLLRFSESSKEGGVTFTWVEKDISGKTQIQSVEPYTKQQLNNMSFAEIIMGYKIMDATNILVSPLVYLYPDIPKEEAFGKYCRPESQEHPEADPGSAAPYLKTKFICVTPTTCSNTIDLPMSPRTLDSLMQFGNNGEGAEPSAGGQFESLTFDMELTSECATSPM

| inhibition of the STAT3–phosphopeptide complex (FP) [1] | Papp at 90 min, 10 μM [3] [×10⁻⁶ cm/s] | Molecule | suppression of STAT3-DNA binding activity (in words) [2] | recovery at 90 min, 10 μM [5] [%] | effect on STAT5 in FP assay [6] | STAT3 activity after 24 h [2] | other results |
| --- | --- | --- | --- | --- | --- | --- | --- |
| neither peptidomimetic inhibited | < 2 | CC(C)C[C@H](NC(=O)[C@H](Cc1ccc(O)cc1)NC(=O)c1ccc(C#N)cc1)C(=O)Nc1cc(C(=O)NCc2ccccc2)cc(-c2ccc(C(N)=O)cc2)c1 [Inhibitor 14ba-OH, N^3-benzyl-5-((S)-2-((S)-2-(4-cyanobenzamido)-3-(4-hydroxyphenyl)propanamido)-4-methylpentanamido)-[1,1′-biphenyl]-3,4′-dicarboxamide] | negligible disruption |  |  |  |  |
|  |  | CC(C)C[C@H](NC(=O)[C@H](Cc1ccc(OP(=O)(O)O)cc1)NC(=O)c1ccc(C#N)cc1)C(=O)O [ISS610] |  |  |  |  | dosage required for cellular activities [4]: mM dosages |
| neither peptidomimetic inhibited | < 2 | CC(C)C[C@H](NC(=O)[C@H](Cc1ccc(O)cc1)NC(=O)c1ccc(C#N)cc1)C(=O)Nc1ccc(C(=O)NCc2ccccc2)c(-c2ccc(C(N)=O)cc2)c1 [Inhibitor 14aa-OH] | almost the same potency as 14aa |  |  |  |  |
|  |  | CC(C)C[C@H](NC(=O)[C@H](Cc1ccc(OP(=O)(O)O)cc1)NC(=O)c1ccc(C#N)cc1)C(=O)Nc1ccc(C(=O)NCc2ccccc2)c(-c2ccc(C(N)=O)cc2)c1 [Inhibitor 14aa, 4-((S)-3-((S)-1-(6-(benzylcarbamoyl)-4′-carbamoylbiphenyl-3-ylamino)-4-methyl-1-oxopentan-2-ylamino)-2-(4-cyanobenzamido)-3-oxopropyl)phenyl dihydrogen phosphate] |  | 1 to 2 | no effect | partially recovered | suppression of STAT3-DNA binding activity ([2]; after 6 h): 80% and > 80% |
|  |  | STAT3 (from UniProt P40763) |  |  |  |  | Kd [7]: 24 nM |
|  |  | CC(C)C[C@H](NC(=O)[C@H](Cc1ccc(OP(=O)(O)O)cc1)NC(=O)c1ccc(C#N)cc1)C(=O)Nc1cc(C(=O)NCc2ccccc2)cc(-c2ccc(C(N)=O)cc2)c1 [Inhibitor 14ba, 4-((S)-3-(((S)-1-((5-(benzylcarbamoyl)-4′-carbamoyl-[1,1′-biphenyl]-3-yl)amino)-4-methyl-1-oxopentan-2-yl)amino)-2-(4-cyanobenzamido)-3-oxopropyl)phenyl dihydrogen phosphate] |  | 1 to 2 | no effect | partially recovered | Papp A→B at 90 min, 10 μM ([5]; Caco-2, pH 7.4): < 0.5 ×10⁻⁶ cm/s; anti-cancer activity (cell viability, in words) [8]: only limited anti-cancer activity |
